Measurements: patent publication EP1282414B1, “FELBAMATE DERIVED COMPOUNDS FOR TREATING NEUROPATHIC PAIN” (University of Virginia Patent Foundation, priority 2000, dated 2001)

Key:
[1] = system: MES-induced seizure spread; assay: Maximal Electroshock Seizure (MES) test, mice oral; assay type: in vivo; conditions: Mus musculus, oral administration
Description: (§1) The MES test is a model for generalized tonic-clonic seizures and is used to identify compounds which prevent seizure spread. The behavioral and electrographic seizures generated in this model are consistent with the human disorder. In the MES test, an electrical stimulus of 0.2 s in duration (50 mA in mice and 150 mA in rat at 60Hz) was delivered via corneal electrodes primed with an electrolyte solution containing an anesthetic agent. Mice were tested at 30 minutes and 4 hours following doses of 30, 100 and 300 mg/kg of test compound. Rats were tested at time intervals between 0.25 and 4 hours following a standard oral dose of 30 mg/kg. Abolition of the hindlimb tonic extensor component indicates the test compound's ability to inhibit MES-induced seizure spread.
Toxicity across time doe not occur until dosages of 300mg/kg. […] Quantitative results obtained for fluoro felbamate 12 in mice indicated a MES ED50 of approximately 20 mg/kg with a safety ratio of at least five (see Table 3). Results obtained for oral administration of fluoro felbamate 12 to rats indicated a MES ED50 of about 3 mg/kg with no toxicity at doses up to 500 mg/kg.

[2] = system: MES-induced seizure spread; assay: Maximal Electroshock Seizure (MES) test, rats p.o.; assay type: in vivo, rat; conditions: for MES, number of animals protected / total number of animals tested: rat p.o., 30 mg/kg
Description: The fluoro derivatives synthesized were submitted to the National Institute of Neurological Disorders and Stroke (NINDS) for evaluation in a standard panel of assays. Two convulsant tests (MES and scMET), and a toxicity screen (rotorod in mice, positional sense and gait in rats) were employed for evaluating the compounds activity as neuroprotecting agents. These testing procedures are described in detail in Molecular and Cellular Targets for Anti-epileptic Drugs, eds. G. Avanzini, G. Regesta, P. Tanganelli, M. Avoli, 1997, John Libbey & Company Ltd, pp 191-198. The felbamate derivatives were evaluated for anticonvulsant activity following intraperitoneal (i.p.) administration in mice and oral administration in rats.
as §1
For the MES and scMET tests the data is presented in the form of the number of animals protected by the administered compound / total number of animals tested. […] Qualitative data was obtained for fluoro felbamate 12 (Tables 1 and 2A), fluoro monocarbamate felbamate 13 (Tables 1 and 2B), and fluorodioxo 16 (Tables 1 and 2C) and for cyclic felbamate 21 (Tables 5 and 6B) and cyclic monocarbamate 22 (Tables 5 and 6A). More extensive quantitative data was also obtained for fluoro felbamate 12 in mice (Table 3) and rats (Table 4).

In the case of `NC(=O)OCC(F)(COC(N)=O)c1ccccc1` [fluoro felbamate, 2-Fluoro-2-phenyl-1,3-propanediol dicarbamate], the ED50 [1] is reported as roughly 27 mg/kg, the ED50 ([2]; Rattus norvegicus, po, read-out: MES ED50, rat, p.o.) is reported as roughly 3 mg/kg and the “MES, number of animals protected / total number of animals tested” value ([2]; 0.25h) is reported as 2/4. For the same molecule, the “MES, number of animals protected / total number of animals tested” value ([2]; 0.5h) was 4/4, the “MES, number of animals protected / total number of animals tested” value ([2]; 1.0h) was 4/4 and the “MES, number of animals protected / total number of animals tested” value ([2]; 2.0h) was 4/4. The “MES, number of animals protected / total number of animals tested” value ([2]; 4.0h) was 4/4.
